In patent publication US20180136242A1 (Autotelic LLC, priority 2014, published 2018):

B1: 8A10: anti-taxane IgG2a mouse monoclonal antibody; variable regions SEQ ID NOS: 2 and 4 (antibody, V domains shown)
VL: DIVMTQSQKFMSITLGERVSITCKPSQNVGSAVTWWQQKPGQSPKLLIYSASNRYTGVPDRFTGSGSGTDFTLTISNVQSEDLADYFCQQYSSYPYTFGGGTKLEIKR
VH: EVQLQQSGPELVKPGASVKISCKASGYTFTDSTMNWVKQSHGKSLEWIGEIDPNNGGTNYNQKFKGKATLTVDKSSSTAYMELRSLTSEDSAVYYCARGVWGQGTTLTVSS
modifications: mouse IgG2a constant regions
B2: 3C6 (antibody, V domains shown)
VH: EVQLQESGPSLVKPSQTLSLTCSVTGDSITSGYWNWIRKFPGNRLEYMGYISYSGSTYYNPSLKSRISITRDTSKNQYYLHLTSVTTEDTATYYCAQGDGAYWGQGTTLTVSS
VL: DVVMTQTPLSLPVSLGDQASISCRSRQSLVHSNGNTYLHWYLQKPGQSPKLLIYKVSNRFSGVPDRFSGSGSGTEFTLEISRVEAEDLGVYFCSQSTHVPPTFGGGTKLEIK

Legend:
[1] = test system: 3H5 anti-baccatin III IgG1 antibody; assay: Paclitaxel antibody cross-reactivity, IC50 towards taxanes (3H5); assay type: binding, mouse; details: antibody 3H5; read-out: IC50 towards taxane, 3H5
From the text: (§1) The antibodies of the invention were generated by immunizing mice with either TAXOL® or baccatin conjugated to KLH. The antibodies are summarized as: 3C6 anti TAXOL® IgG2a,k, 3H5 anti-baccatin III IgG1, 8A10 anti-taxane IgG2a. Cross-reactivity profile of 3C6, 3H5, and 8A10 antibodies are shown by their IC50 values towards various taxanes in Table 1.

[2] = test system: 3C6 anti TAXOL IgG2a,k antibody; assay: Paclitaxel antibody cross-reactivity, IC50 towards taxanes (3C6); assay type: binding, mouse; details: antibody 3C6; read-out: IC50 towards taxane, 3C6
From the text: as §1

[3] = test system: 8A10 anti-taxane IgG2a antibody; assay: Paclitaxel antibody cross-reactivity, IC50 towards taxanes (8A10); assay type: binding, mouse; details: antibody 8A10
From the text: as §1

BSA-paclitaxel [4] = target: T1, BSA-paclitaxel (Bos taurus, UniProt P02769); assay: Biacore T-200 SPR, antibody on the chip; assay type: binding; details: Biacore T-200, antibody on the chip
BSA-paclitaxel [5] = target: T1, BSA-paclitaxel; assay: Biacore 3000 SPR, antibody on the chip; assay type: binding; details: Biacore 3000, antibody on the chip (3C6: single point)
BSA-paclitaxel (BSA-Ag) = BSA-paclitaxel (BSA-Ag) (Bos taurus, UniProt P02769); assay: Biacore 3000 SPR kinetic analysis, antigen on the chip; assay type: binding; details: for Dissociation rate constant (kd) / ka: 25° C.
Protocol: In this example, a method for determining antibody properties is described. The methods were carried out by Precision Antibody, Inc. (Columbia, Md.) using a Biacore Assay.
Binding experiments were performed on a Biacore 3000 instrument (GE, Pittsburgh, Pa.) at 25° C. Approximately 13,000 RU of anti-BSA ab (Life Technologies, A11133, lot 1637270) was directly immobilized on flow cell 2 of CM5 chip by amine coupling (EDC/NHS). 110-120 RU of BSA-paclitaxel (BSA-Ag) was captured. Flow cell 1 was treated the same way but without the ligand and used as a blank surface for reference subtraction. The unoccupied sites were blocked with 1 M ethanol amine. Analytes Ab 1 (8A10) and Ab2 (3C6) were flowed over the chip at variable concentrations. Binding of antigen to the antibodies was monitored in real time to obtain on (ka) and off (kd) rates. The equilibrium constant (KD) was calculated from the observed ka and kd.
Full kinetic analysis was performed using analyte concentrations as indicated with 2-fold serial dilutions. The starting concentration was 200 nM, followed by 100, 50, 25, 12.5, and 0 nM. The 100 nM concentration was run in duplicates to confirm the reproducibility of the assay.
The assay buffer was 10 mM HEPES buffer (pH 7.4), 150 mM NaCl, 3 mM EDTA, 0.05% P20 (polyoxyethylenesorbitan). The regeneration buffer was 10 mM Glycine buffer (pH 2.0). The conjugation buffer was 10 mM sodium acetate buffer (pH 5.0). The flow rate used for capturing the ligand was 1 μL/min. The flow rate for kinetics analysis was 50 μL/min.
Chi square (χ^2) analysis was carried out between the actual sensorgram and the sensorgram generated from the BlAnalysis software to determine the accuracy of the analysis. A χ^2 value within 1-2 is considered significant (accurate) and below 1 is highly significant (highly accurate).

BSA-paclitaxel antigen = BSA-paclitaxel antigen (Bos taurus, UniProt P02769); assay: Direct binding ELISA of intact IgGs to BSA-paclitaxel antigen (FIG. 4); details: read-out: apparent Kd
Protocol: FIG. 4 is a graph illustrating direct binding of intact IgGs (8A10 and 3C6) of the invention to a BSA-paclitaxel antigen on an ELISA.
Antibody affinity. 50 μL of BSA-paclitaxel antigen at a concentration of 3.5 μg/mL in 1× PBS was bound to a plate and incubated at 4° C. overnight. The plate was washed four ties with PBS/0.05% Tween 20. The plate was blocked for 2 hours with 1% BSA in PBS/0.05% Tween 20 at room temperature. The plate was washed four ties with PBS/0.05% Tween 20. 50 μL of antibody sample (8A10 and 3C6) was bound (start at 300 nM and titer down by 3s). The plate was washed four times with PBS/0.05% Tween 20. 50 μL of goat anti mIgG horseradish peroxidase (1:5000 dilution) was bound and then 50 μL of substrate solution TMB was added and the color allowed to develop. The reaction was stopped with 50 μL 1M HCl and the optical density was read at 450 nm.

[6] = BSA-Ag (110RU) ligand, full kinetic analysis
[7] = BSA-Ag (110RU) ligand, calculated from ka and kd
[8] = Biacore 3000, antigen on the chip

Chain of BSA-paclitaxel (BSA-Ag) (P02769 25-607): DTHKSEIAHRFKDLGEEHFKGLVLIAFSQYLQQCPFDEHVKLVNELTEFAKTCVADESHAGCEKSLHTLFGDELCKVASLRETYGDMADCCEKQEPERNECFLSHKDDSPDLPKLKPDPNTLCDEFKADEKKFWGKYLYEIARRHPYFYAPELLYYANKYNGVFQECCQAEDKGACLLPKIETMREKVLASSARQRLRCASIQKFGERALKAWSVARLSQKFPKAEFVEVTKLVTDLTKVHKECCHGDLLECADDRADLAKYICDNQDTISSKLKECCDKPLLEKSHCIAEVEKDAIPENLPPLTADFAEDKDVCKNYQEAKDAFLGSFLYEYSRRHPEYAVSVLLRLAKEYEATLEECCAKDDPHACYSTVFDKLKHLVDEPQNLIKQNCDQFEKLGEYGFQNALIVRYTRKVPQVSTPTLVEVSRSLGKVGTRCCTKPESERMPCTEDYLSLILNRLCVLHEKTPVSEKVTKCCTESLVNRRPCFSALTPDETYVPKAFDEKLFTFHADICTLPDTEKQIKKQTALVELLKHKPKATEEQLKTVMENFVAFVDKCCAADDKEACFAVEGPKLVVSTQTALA
T1 sequence (P02769 25-607): as above
Chain of BSA-paclitaxel antigen (P02769 25-607): as above

Molecule	IC50 [1] [nM]	IC50 [2] [nM]	IC50 [3] [nM]	further results
CC(=O)O[C@H]1C(=O)[C@@]2(C)[C@H]([C@H](OC(=O)c3ccc(C(F)(F)F)cc3)[C@]3(O)C[C@H](OC(=O)[C@H](O)[C@@H](NC(=O)c4ccccc4)c4ccccc4)C(C)=C1C3(C)C)[C@]1(OC(C)=O)CO[C@@H]1C[C@@H]2O [2-debenzoyl-2-(p-trifluoromethylbenzoyl)taxol]	> 293	> 293	> 293	–
CC(=O)O[C@@]12CO[C@@H]1C[C@@H](O)[C@@]1(C)C(=O)[C@H](O)C3=C(C)[C@@H](O)C[C@@](O)([C@@H](OC(=O)c4ccccc4)[C@H]21)C3(C)C [7-epi-10-deacetylbaccatin III]	150	> 469	27	–
CC(=O)O[C@@]12CO[C@@H]1C[C@H](O)[C@@]1(C)C(=O)[C@H](O)C3=C(C)[C@@H](OC(=O)[C@H](O)[C@@H](NC(=O)c4ccccc4)c4ccccc4)C[C@@](O)([C@@H](OC(=O)c4ccccc4)[C@H]21)C3(C)C [7-epi-10-deacetyltaxol]	> 333	25	15	–
CC(=O)O[C@H]1C(=O)[C@@]2(C)[C@H]([C@H](OC(=O)c3ccccc3)[C@]3(O)C[C@H](OC(=O)[C@H](O)[C@@H](NC(=O)c4ccccc4)c4ccccc4)C(C)=C1C3(C)C)[C@]1(OC(C)=O)CO[C@@H]1C[C@@H]2O [7-epi-taxol]	> 316	80	50	–
CC(=O)O[C@@]12CO[C@@H]1C[C@H](O[C@@H]1OC[C@@H](O)[C@H](O)[C@H]1O)[C@@]1(C)C(=O)[C@H](O)C3=C(C)[C@@H](OC(=O)[C@H](O)[C@@H](NC(=O)c4ccccc4)c4ccccc4)C[C@@](O)([C@@H](OC(=O)c4ccccc4)[C@H]21)C3(C)C [7-xylosyl-10-deacetyltaxol]	> 286	30	17	–
CC(=O)O[C@@]12CO[C@@H]1C[C@H](O)[C@@]1(C)C(=O)[C@H](O)C3=C(C)[C@@H](O)C[C@@](O)([C@@H](OC(=O)c4ccccc4)[C@H]21)C3(C)C [10-deacetylbaccatin III]	230	> 551	21	–
CC(=O)O[C@@]12CO[C@@H]1C[C@H](O)[C@@]1(C)C(=O)[C@H](O)C3=C(C)[C@@H](OC(=O)[C@H](O)[C@@H](NC(=O)c4ccccc4)c4ccccc4)C[C@@](O)([C@@H](OC(=O)c4ccccc4)[C@H]21)C3(C)C [10-deacetyltaxol]	> 333	15	10	–
CC(=O)OC[C@@]1(O)[C@H]2[C@H](OC(=O)c3ccccc3)[C@]3(O)C[C@H](OC(=O)[C@H](O)[C@@H](NC(=O)c4ccccc4)c4ccccc4)C(C)=C([C@@H](OC(C)=O)C(=O)[C@]2(C)[C@@H](O)C[C@@H]1O)C3(C)C [20-acetoxy-4-deacetyl-5-epi-20,O-secotaxol]	> 310	> 310	> 293	–
CC(=O)O[C@H]1C(=O)[C@@]2(C)[C@H]([C@H](OC(=O)c3ccccc3)[C@]3(O)C[C@H](O)C(C)=C1C3(C)C)[C@]1(OC(C)=O)CO[C@@H]1C[C@@H]2O [baccatin III]	10	> 511	12	–
CC(=O)O[C@H]1C(=O)[C@]2(C)[C@H](O)C[C@H]3OC[C@@]3(OC(C)=O)[C@H]2[C@H](OC(=O)c2ccccc2)[C@]2(O)C[C@H](O)C(C)=C1C2(C)C [baccatin V]	10	> 460	10	–
C/C=C(\C)C(=O)N[C@@H](c1ccccc1)[C@@H](O)C(=O)O[C@H]1C[C@@]2(O)[C@@H](OC(=O)c3ccccc3)[C@@H]3[C@]4(OC(C)=O)CO[C@@H]4C[C@H](O)[C@@]3(C)C(=O)[C@H](OC(C)=O)C(=C1C)C2(C)C [cephalomannine]	> 325	220	8	–
CC(=O)O[C@H]1C(=O)[C@@]2(C)[C@H]([C@H](OC(=O)c3ccccc3)[C@]3(O)C[C@H](OC(=O)[C@H](O)[C@@H](NC(=O)c4ccccc4)c4ccccc4)C(C)=C1C3(C)C)[C@]1(OC(C)=O)CO[C@@H]1C[C@@H]2O [paclitaxel (TAXOL ®), paclitaxel]	> 316	10	7	–
B1	–	–	–	Kd (BSA-paclitaxel [4]): 3.6 nM; Off-rate (BSA-paclitaxel [4]): 8.7 × 10^−4; On-rate (BSA-paclitaxel [4]): 2.4 × 10^5; Rmax (BSA-paclitaxel [4]): 8.6; Kd (BSA-paclitaxel [5]): 1.3 nM; Off-rate (BSA-paclitaxel [5]): 2.0 × 10^−3; On-rate (BSA-paclitaxel [5]): 1.6 × 10^6; Rmax (BSA-paclitaxel [5]): 3.6; Dissociation rate constant (kd) (BSA-paclitaxel (BSA-Ag); [6]): 0.000304 s⁻¹; ka (BSA-paclitaxel (BSA-Ag); [6]): 470000 M⁻¹ s⁻¹; Kd (BSA-paclitaxel (BSA-Ag); [7]): 0.645 nM; KA (BSA-paclitaxel (BSA-Ag); [6]): 1.55e+09 M⁻¹; Rmax (BSA-paclitaxel (BSA-Ag); [6]): 4.01; Kd (BSA-paclitaxel (BSA-Ag); [8]): 0.65 nM; Off-rate (BSA-paclitaxel (BSA-Ag); [8]): 3.0 × 10^−4; On-rate (BSA-paclitaxel (BSA-Ag); [8]): 4.7 × 10^5; Rmax (BSA-paclitaxel (BSA-Ag); [8]): 4.0; Kd (BSA-paclitaxel antigen): ~10 nM
B2	–	–	–	Kd (BSA-paclitaxel [4]): 12 nM; Off-rate (BSA-paclitaxel [4]): 2.2 × 10^−4; On-rate (BSA-paclitaxel [4]): 1.8 × 10^4; Rmax (BSA-paclitaxel [4]): 112; Kd (BSA-paclitaxel [5]): 10 nM; Off-rate (BSA-paclitaxel [5]): 2.9 × 10^−4; On-rate (BSA-paclitaxel [5]): 2.8 × 10^4; Rmax (BSA-paclitaxel [5]): 54.4; Dissociation rate constant (kd) (BSA-paclitaxel (BSA-Ag); [6]): 0.000967 s⁻¹; ka (BSA-paclitaxel (BSA-Ag); [6]): 20500 M⁻¹ s⁻¹; Kd (BSA-paclitaxel (BSA-Ag); [7]): 47.2 nM; KA (BSA-paclitaxel (BSA-Ag); [6]): 2.12e+07 M⁻¹; Rmax (BSA-paclitaxel (BSA-Ag); [6]): 15.6; Kd (BSA-paclitaxel (BSA-Ag); [8]): 47 nM; Off-rate (BSA-paclitaxel (BSA-Ag); [8]): 9.7 × 10^−4; On-rate (BSA-paclitaxel (BSA-Ag); [8]): 2.1 × 10^4; Rmax (BSA-paclitaxel (BSA-Ag); [8]): 15.6; Kd (BSA-paclitaxel antigen): ~10 nM
